Values after ≈ are worked out from the molar mass of the structure shown.
Assays:
Solubility in water = assay type: physicochemical
Solubility in acetone = assay type: physicochemical; conditions: acetone at 25° C.

**Q.** For `CCC(=O)O[C@]1(C(=O)SCF)[C@H](C)C[C@H]2[C@@H]3C[C@H](F)C4=CC(=O)C=C[C@]4(C)[C@@]3(F)[C@@H](O)C[C@@]21C` [Fluticasone, (6S,8S,9R,10S,11S,13S,14S,16R,17R)-6,9-difluoro-17-(((fluoromethyl)thio)carbonyl)-11-hydroxy-10,13,16-trimethyl-3-oxo-6,7,8,9,10,11,12,13,14,15,16,17-dodecahydro-3H-cyclopenta[a]phenanthren-17-yl propionate], which “solubility in water (in words)” value (Solubility in water; water) is on record?
**A.** practically insoluble in water

**Q.** What about the solubility (Solubility in water; water at 25° C.) of the same molecule?
**A.** < 1 µg/mL

**Q.** What about the solubility in acetone (Solubility in acetone) of the same molecule?
**A.** 9000 µg/mL (≈ 18 mM)
